Results taken from ChEMBL document CHEMBL4627294, “Synthesis and efficacy of pyrvinium-inspired analogs against tuberculosis and malaria pathogens” (Bioorg Med Chem Lett, 2020).
In brackets after ≈: the same amount, converted by molar mass. Activity calls are given as the source filed them. The calls are words filed in the database; no cut-off is given here.

Legend:
Plasmodium falciparum [1] = assay: Antimalarial activity against erythrocytic stage of Plasmodium falciparum 3D7 incubated for 50 hrs; format: functional, organism-based; details: 3D7, 50 h
CHO-K1 = assay: Cytotoxicity against CHOK1 cells; format: cell-based; details: Cricetulus griseus
[2] = Cytotoxicity against human HEK cells; format: cell-based; details: HEK293
NRK-49F = assay: Cytotoxicity against rat NRK-49F cells; format: cell-based
[3] = Selectivity index, ratio of IC50 for CHOK1 cells to IC50 for Plasmodium falciparum 3D7; format: toxicity; details: hamster, CHO-K1 cells; read-out: Ratio IC50
[4] = system: Mycobacterium tuberculosis; assay: Antimycobacterial activity against Mycobacterium tuberculosis H37Rv assessed as inhibition of bacterial growth by MABA assay; format: functional
[5] = Selectivity index, ratio of IC50 for CHOK1 cells to MIC for Mycobacterium tuberculosis H37Rv; format: toxicity; details: hamster, CHO-K1 cells
Plasmodium falciparum [6] = assay: Antimalarial activity against early ring stage of Plasmodium falciparum 3D7 assessed as parasite growth arrest at early trophozite stage at 3 times of IC50 incubated for 48 hrs by giemsa staining based light microscopy; format: functional, organism-based
Plasmodium falciparum [7] = assay: Parasiticidal activity against early ring stage of Plasmodium falciparum 3D7 assessed as reduction in parasite growth incubated for 48 hrs followed by compound washed off and measured after 48 hrs incubation in normal medium; format: functional, organism-based
Plasmodium falciparum [8] = assay: Antimalarial activity against drug-resistant Plasmodium falciparum Dd2; format: functional, organism-based
Plasmodium falciparum [9] = assay: Antimalarial activity against Plasmodium falciparum 3D7 assessed as inhibition of parasite growth incubated for 96 hrs; format: functional, organism-based; details: 3D7, 96 h

Row | SMILES | IC50 (Plasmodium falciparum [1]) | IC50 (CHO-K1) | IC50 [2] | IC50 (NRK-49F) | selectivity ratio [3] | MIC [4] | selectivity ratio [5] | Activity (Plasmodium falciparum [6]) | Activity (Plasmodium falciparum [7]) | IC50 (Plasmodium falciparum [8]) | IC50 (Plasmodium falciparum [9])
1 | CN(C)c1ccc2c(ccc(/C=C/c3cc(Cl)cc(Cl)c3O)[n+]2C)c1 | 2.47 µM | 54.7 µM | 50.1 µM | 49.1 µM | 22.1 | 25 µM | 2.18 | – | – | – | –
2 | CN(C)c1ccc2c(ccc(/C=C/c3cc(Cl)ccc3O)[n+]2C)c1 | 0.441 µM | 30.3 µM | 15.3 µM | 12 µM | 68.7 | 3.12 µM | 9.72 | – | – | – | –
3 | CN(C)c1ccc2c(ccc(/C=C/c3ccccc3[N+](=O)[O-])[n+]2C)c1 | 3.6 µM | 73.9 µM | 66.7 µM | 69.5 µM | 20.5 | 50 µM | 1.47 | – | – | – | –
4 | CN(C)c1ccc2c(ccc(/C=C/c3ccc(C#N)cc3)[n+]2C)c1 | 0.094 µM | 52.6 µM | 62.1 µM | 50.2 µM | 553 | 50 µM | 1.05 | – | – | – | –
5 | CCc1nc(N)nc(N)c1-c1ccc(Cl)cc1 [PYRIMETHAMINE] | 0.011 µM | – | – | – | – | – | – | – | – | – | –
6 | CN(C)c1ccc2c(ccc(/C=C/c3ccccc3)[n+]2C)c1 | 0.089 µM | 41.6 µM | 39.8 µM | 42.1 µM | 467 | > 100 µM | < 0.41 | – | – | – | –
7 | CN(C)c1ccc2c(ccc(/C=C/c3c(Cl)cccc3Cl)[n+]2C)c1 | 0.023 µM | 7.92 µM | 5.62 µM | 5.23 µM | 344 | 3.12 µM | 2.53 | Active | Active | 0.053 µM | 0.00237 µM
8 | CN(C)c1ccc2c(ccc(/C=C/c3ccc[nH]3)[n+]2C)c1 | 1.54 µM | 77.8 µM | 66.9 µM | 76 µM | 50.5 | 25 µM | 3.11 | – | – | – | –
9 | Cc1cc(/C=C/c2ccc3cc(N(C)C)ccc3[n+]2C)c(C)n1-c1ccccn1 | 0.228 µM | 15.2 µM | 14.6 µM | 12.7 µM | 66.2 | 6.25 µM | 2.42 | – | – | – | –
10 | Cc1cc(/C=C/c2ccc3cc(N(C)C)ccc3[n+]2C)c(C)n1-c1ccccc1 | 0.774 µM | 10.9 µM | 16 µM | 20.2 µM | 14 | 6.25 µM | 1.73 | – | – | – | –
11 | CN(C)c1ccc2c(ccc(/C=C/c3c[nH]c4ccccc34)[n+]2C)c1 | 0.06 µM | 11.4 µM | 10.6 µM | 11.3 µM | 188 | 3.12 µM | 3.64 | – | – | 0.097 µM | –
12 | CN(C)c1ccc2c(ccc(/C=C/c3cccc(C#N)c3)[n+]2C)c1 | 0.217 µM | 87.6 µM | 56 µM | 59.5 µM | 404 | 25 µM | 3.5 | – | – | – | –
13 | CO[C@H]1/C=C/O[C@@]2(C)Oc3c(C)c(O)c4c(O)c(c(/C=N/N5CCN(C)CC5)c(O)c4c3C2=O)NC(=O)/C(C)=C\C=C\[C@H](C)[C@H](O)[C@@H](C)[C@@H](O)[C@@H](C)[C@H](OC(C)=O)[C@@H]1C [RIFAMPIN] | – | – | – | – | – | 0.24 µM (≈ 0.198 µg/mL) | – | – | – | – | –
14 | CN(C)c1ccc2c(ccc(/C=C/c3ccc(Cl)c(Cl)c3)[n+]2C)c1 | 0.087 µM | 12.4 µM | 8.56 µM | 11.3 µM | 142 | 3.12 µM | 3.98 | – | – | – | –
15 | C[C@@H]1CC[C@H]2[C@@H](C)C(=O)O[C@@H]3O[C@@]4(C)CC[C@@H]1[C@]32OO4 [ARTEMISININ] | 0.025 µM | – | – | – | – | – | – | – | – | 0.021 µM | –
